Tests used:
hESC-CMs [1] = test: PrestoBlue cell viability analysis of hESC-CMs exposed to doxorubicin; type: cell-based, human; conditions: for optimal timing of pretreatment prior to doxorubicin: 1, 6, 24, 48, 72 h tested, doxorubicin 1.5 μM for 24 h
Description: Viability of hESC-CMs was assessed using PrestoBlue (Thermo Fisher Scientific, USA). hESC-CMs in suspension were seeded at a density of 15,000 cells per well on 96-well flat-bottom microtiter plates and cultured at 37° C. in a humidified 5% CO2 atmosphere. The B27+/RPMI-1640 media with Y27632 were changed to B27+/RPMI−1640 media within 24 hours. Cells were then incubated in B27+/RPMI−1640 without supplement for at least 72 hours. PrestoBlue was diluted in a ratio of 1:10 in B27+/RPMI−1640 media and incubated with the cells at 37° C. for 30 minutes. After incubation, fluorescence reading was performed at excitation and emission wavelengths of 530 nm and 590 nm, respectively, using the Synergy HTX Multi-Mode microplate reader (Agilent Technologies, Inc., USA).
Six logarithmic concentrations of GDF15 were initially used to identify the optimal dose for cytoprotection: 0.1 ng/ml, 1 ng/ml, 10 ng/ml, 100 ng/ml, 1,000 ng/ml (1 ug/ml), and 10,000 ng/ml (10 ug/ml). Further refinement of dose response was subsequently achieved using concentrations at 100 ng/ml, 200 ng/ml, and 300 ng/ml. The optimal time point (see below) of 24 hours was selected. Doxorubicin at 1.5 μM was used to induce cytotoxicity.
hESC-CMs were pretreated with GDF15 for 1 hour, 6 hours, 24 hours, 48 hours, or 72 hours (“pretreatment”), followed by exposure to 1.5 μM doxorubicin alone for a further 24 hours. A second set of experiments involved pretreatment of hESC-CMs for 1 hour, 6 hours, 24 hours, 48 hours, or 72 hours, followed by removal of the media containing GDF15, and coincubation of hESC-CMs with both GDF15 and doxorubicin for another 24h (“pre/co-treatment”). The efficacy of GDF15 in protecting cardiomyocytes was assessed by cell viability analysis using PrestoBlue.

hESC-CMs [2] = test: Mitochondrial membrane potential (TMRE); type: cell-based, human
Description: Mitochondrial membrane potential (MMP) as a measure of mitochondrial function and viability was assessed using tetramethylrhodamine ethyl ester (TMRE) (Thermo Fisher Scientific, USA), a cell-permeant cationic fluorescent dye that is readily taken up by viable mitochondria. hESC-CMs seeded at 15,000 cells per well on a 96-well flat-bottom microtiter plate were cultured at 37° C. in a humidified 5% CO2 atmosphere for at least 3 days before MMP measurement. TMRE dye was applied at 50 nM for 20 minutes in B27+/RPMI−1640 media, followed by fluorescence reading at excitation and emission wavelengths of 485 nm and 528 nm, respectively, using the Synergy HTX Multi-Mode microplate reader.

[3] = hESC-CMs, pretreatment in the presence of Dox

GDF15: commercially available recombinant human GDF-15 protein (PeproTech 120-28C), CHO cell-derived, SEQ ID NO: 1
cytoprotective effects after priming, pre/co-treatment (hESC-CMs [1]; hESC-CMs primed with GDF15 for 24 hours, then coincubation with GDF15 and doxorubicin 24 h): cytoprotective effects persisted | optimal timing of pretreatment prior to doxorubicin (hESC-CMs [1]; hESC-CMs): 24 h | optimal timing of pretreatment prior to doxorubicin (hESC-CMs [1]; hESC-CMs, listed as recombinant GDF15): approximately 24 hours | cell viability (positive PrestoBlue staining) (hESC-CMs [1]; hESC-CMs, GDF15 pretreatment for 24 hours before doxorubicin 1.5 μM): increased cell viability | cell viability compared with dexrazoxane (hESC-CMs [1]; [3]): slightly higher percentage of cell viability | mitochondrial membrane potential and function (TMRE) (hESC-CMs [2]; 300 ng/ml GDF15 pretreatment, hESC-CMs exposed to doxorubicin): better preserved than at other concentrations | mitochondrial membrane potential compared with dexrazoxane (hESC-CMs [2]; [3]): performed similarly to dexrazoxane
